The values below come from patent US8822494B2 (Pfizer Inc., priority 2012, dated 2014).

The target in experiment [1] is T1, Human D1 (Homo sapiens (Human), UniProt P21728). Description: Human D1 Receptor Binding Assay ([3H]-SCH23390 competition). To be noted: read-out: Human D1 Receptor Binding, Ki (μM); Geometric mean of 2-3 determinations; over-expressing LTK human cell lines, 0.5 nM [3H]-SCH23390, 30 min at 37° C.; footnote b = single determination, c = geometric mean of ≧4 determinations. The procedure:
D1 binding assays were performed using over-expressing LTK human cell lines. […] These ligand and tissue concentrations were used in time course studies to determine linearity and equilibrium conditions for binding. […] The pellet was resuspended in assay buffer [50 mM Tris (pH 7.4@ RT) containing 4 mM MgSO4 and 0.5 mM EDTA]. […] Non-specific binding was determined by radioligand binding in the presence of a saturating concentration of (+)-Butaclamol (10 μM), a D1 antagonist. After a 30 minute incubation period at 37° C., assay samples were rapidly filtered through Unifilter-96 GF/B PEI-coated filter plates and rinsed with 50 mM Tris buffer (pH 7.4 at 4° C.). […] Ki values were calculated according to the Cheng-Prusoff equation: […]

For experiment [2], the target named is T1, Human D1. Description: D1 cAMP HTRF Assay. To be noted: HEK293T/hD1#1 stable cell line, 30 min at room temperature; footnote a = geometric mean of ≧7 determinations. Type of experiment: cell-based. The source says:
This assay was used to determine the ability of a test compound to agonize (including partially agonize) D1. A Mab anti-cAMP labeled Cryptate visualizes the tracer. […] The signal, therefore, is inversely proportional to the concentration of cAMP in the sample.
The cAMP Dynamic kit was obtained from Cisbio International (Cisbio 62AM4PEJ). Multidrop Combi (Thermo Scientific) was used for assay additions. An EnVision (PerkinElmer) reader was used to read HTRF.
A HEK293T/hD1#1 stable cell line was constructed internally (Pfizer Ann Arbor).
Media was removed and cell pellet was re-suspended in PBS/[…] generating 2e5 cells/mL. […] Working solutions of cAMP-D2 and anti-cAMP-cryptate were prepared according to Cisbio instructions. […] The assay plate was incubated for 1 hour at room temperature. The assay plate was read on an EnVision plate reader using Cisbio recommended settings.
Data analysis was done using computer software. Percent effects were calculated from the compound controls. Ratio EC50 was determined using the raw ratio data from the EnVision reader. The cAMP standard curve was used in an analysis program to determine cAMP concentrations from raw ratio data. cAMP EC50 was determined using the calculated cAMP data.

T1 sequence (P21728 whole entry): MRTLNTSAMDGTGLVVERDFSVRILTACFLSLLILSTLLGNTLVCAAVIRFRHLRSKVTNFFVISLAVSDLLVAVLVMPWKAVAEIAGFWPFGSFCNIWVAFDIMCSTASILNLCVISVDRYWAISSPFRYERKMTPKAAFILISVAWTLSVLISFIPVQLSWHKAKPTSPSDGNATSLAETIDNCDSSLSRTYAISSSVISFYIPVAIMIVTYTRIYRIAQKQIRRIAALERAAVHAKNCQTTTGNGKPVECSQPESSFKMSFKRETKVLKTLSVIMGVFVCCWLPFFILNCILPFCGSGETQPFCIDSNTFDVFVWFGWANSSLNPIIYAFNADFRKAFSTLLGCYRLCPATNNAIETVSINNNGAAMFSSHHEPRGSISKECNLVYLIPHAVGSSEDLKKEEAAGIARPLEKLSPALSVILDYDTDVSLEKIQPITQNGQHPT

Take `COc1cnc(Oc2ccc(-c3c(C)n[nH]c(=O)c3C)cc2)c2cn[nH]c12` [Example 47, 5-{4-[(7-methoxy-1H-pyrazolo[4,3-c]pyridin-4-yl)oxy]phenyl}-4,6-dimethylpyridazin-3(2H)-one]: the Ki in experiment [1] came out at 0.695 µM. Besides, the EC50 in experiment [2] was 1300 nM.
The matching figures for `Cc1cc(Oc2nccc3[nH]ccc23)ccc1-c1cncc2nccn12` [Example 15, 5-[2-methyl-4-(1H-pyrrolo[3,2-c]pyridin-4-yloxy)phenyl]imidazo[1,2-a]pyrazine]: 0.0975 µM and 417 nM.
Turning to `Cc1cc(Oc2nccc3[nH]ccc23)ccc1-c1c(C)ncnc1C#N` [Example 17, 6-methyl-5-[2-methyl-4-(1H-pyrrolo[3,2-c]pyridin-4-yloxy)phenyl]pyrimidine-4-carbonitrile], in experiment [1], the Ki was 0.0392 µM. In experiment [2], this molecule displayed an EC50 of 374 nM.
With `Cc1cc(Oc2nccc3[nH]ccc23)ccc1-c1c(C)ncc(=O)n1C` (single isomer, unassigned) [Example 27, (+)-1,5-dimethyl-6-[2-methyl-4-(1H-pyrrolo[3,2-c]pyridin-4-yloxy)phenyl]pyrazin-2(1H)-one], the Ki in experiment [1] was 0.0106 µM. Besides, the concentration giving a half-maximal response (EC50) in experiment [2] came out at 64.6 nM.
The matching figures for `Cc1cc(Oc2nccc3[nH]cc(C#N)c23)ccc1-c1c(C)ncnc1C` [Example 44, 4-[4-(4,6-dimethylpyrimidin-5-yl)-3-methylphenoxy]-1H-pyrrolo[3,2-c]pyridine-3-carbonitrile]: 0.0046 µM and 55.3 nM.
The matching figures for `Cc1cc(Oc2nccc3[nH]ncc23)c(F)cc1-c1c(C)ncnc1C` [Example 36, 4-[4-(4,6-dimethylpyrimidin-5-yl)-2-fluoro-5-methylphenoxy]-1H-pyrazolo[4,3-c]pyridine]: 0.118 µM and 733 nM.
With `Cc1cc(Oc2nccc3[nH]ccc23)ccc1-c1c(C)ncnc1C` [Example 5, 4-[4-(4,6-dimethylpyrimidin-5-yl)-3-methylphenoxy]-1H-pyrrolo[3,2-c]pyridine], in experiment [1], the Ki was found to be 0.013 µM. Further, the response in experiment [2] was half-maximal at 146 nM (EC50).
Take `Cc1ncnc(C)c1-c1cc(F)c(Oc2nccc3[nH]ccc23)cc1F` [Example 22, 4-[4-(4,6-dimethylpyrimidin-5-yl)-2,5-difluorophenoxy]-1H-pyrrolo[3,2-c]pyridine]: the Ki in experiment [1] was determined as 0.0548 µM. A half-maximal response in experiment [2] (EC50) required 538 nM.
As to `Cc1c(-c2ccc(Oc3nccc4[nH]ncc34)cc2)n(C)c(=O)[nH]c1=O` [Example 43, 1,5-dimethyl-6-[4-(1H-pyrazolo[4,3-c]pyridin-4-yloxy)phenyl]pyrimidine-2,4(1H,3H)-dione], the Ki in experiment [1] is 0.0175 µM. In experiment [2], this molecule displayed an EC50 of 28.2 nM.
As to `Cc1cc(Oc2nccc3n[nH]cc23)ccc1-c1c(C)n[nH]c(=O)c1C` (single isomer, unassigned) [Example 4, (−)-4,6-dimethyl-5-[2-methyl-4-(1H-pyrazolo[4,3-c]pyridin-4-yloxy)phenyl]pyridazin-3(2H)-one], the Ki in experiment [1] amounted to 0.0104 µM. This molecule gave an EC50 in experiment [2] of 10.5 nM.
In the case of `Cc1cc(Oc2nccc3[nH]ncc23)ccc1-c1cc(=O)[nH]nc1C` [Example 31, 6-methyl-5-[2-methyl-4-(1H-pyrazolo[4,3-c]pyridin-4-yloxy)phenyl]pyridazin-3(2H)-one], the Ki in experiment [1] stood at 0.287 µM. For the same molecule, the EC50 in experiment [2] amounted to 548 nM.
As for `Cc1cc(Oc2nccc3[nH]ncc23)ccc1-n1c(C)nc2cnccc21` [Example 30, 4-[3-methyl-4-(2-methyl-1H-imidazo[4,5-c]pyridin-1-yl)phenoxy]-1H-pyrazolo[4,3-c]pyridine], in experiment [1], the inhibition constant Ki was 0.268 µM. This molecule also returned an EC50 in experiment [2] of 2760 nM.
As to `Cc1ncnc(C)c1-c1ccc(Oc2nccc3[nH]ncc23)cc1C#N` [Example 34, 2-(4,6-dimethylpyrimidin-5-yl)-5-(1H-pyrazolo[4,3-c]pyridin-4-yloxy)benzonitrile], the Ki in experiment [1] turned out to be 0.391 µM. In experiment [2], this molecule came in with an EC50 of 2380 nM.
